{
  "source": "patent US8703424B2",
  "about": "“Predicting human developmental toxicity of pharmaceuticals using human stem-like cells and metabolomics” (Stemina Biomarker Discovery, Inc., priority 2010, dated 2014)",
  "key": {"[1]": {"tested_on": "WA09 human embryonic stem (hES) cells", "experiment": "PLS-DA prediction of teratogenicity from secretome of treated hES cells (Example 9)", "details": "DevTox pharmaceutical", "excerpt": "(§5) These included 11 known teratogens and 11 known non-teratogens. The current model is based on the mean fold change (treatment versus its associated intra-experimental control) of 15 metabolites common among the secretome of hES cells treated with pharmaceutical agents and unknown chemical compounds."}, "WA09 hESCs [2]": {"tested_on": "WA09 hESCs", "experiment": "LC-MS metabolomics: abundance changes of metabolites in hESCs dosed at circulating dose", "format": "cell-based, human", "details": "drug-treated vs control", "protocol": "(§1) These medium controls provided baseline mass spectral data.\n(§2) The 2.5 mL of spent media per well from Example 1 was added to 1.67 mL acetonitrile to make a 40% acetonitrile solution. The acetonitrile acts to “quench” the spent media sample, slowing or halting many metabolic processes and aiding in precipitation of cellular proteins. Samples were either stored at −80° C. for later analysis, or for immediate analysis, 250 μL of the quenched solution was mixed with 250 μL of water, to a final concentration of 20% acetonitrile, then added to a 3 kDa molecular weight cut-off filter spin column (Microcon YM-3 Centrifugal Filter, Millipore, Billerica, Mass.). Each sample was then centrifuged in an IEC CL31R Multispeed Centrifuge (Thermo Scientific, Waltham, Mass.) at 13,000×g at 4° C. for 200 minutes. Following centrifugation, the flow-through was saved then dried for several hours in a Savant High Capacity Speedvac Plus Concentrator. The concentrated sample was then dissolved in 50 μL of 0.1% formic acid prior to LC-MS analysis.\n(§3) 5 μl of each sample was injected.\n(§4) Following LC-MS, chromatograms were inspected for reproducibility. LC-MS runs with total ion counts that vary by more than 25% were repeated to ensure that samples could be accurately compared. These runs were then used to create mass features that correspond to molecules detected across the different LC-MS runs. Mass features were extracted from the LC-MS data using MassHunter Qualitative Analysis software (Agilent Technologies). The following criteria were used as general guidelines, however some flexibility and optimization was needed. m/z values within the range of 75-1500, with a charge of +1 or −1, and a centroid height greater than 1000 were used to generate “mass features.” The mass peaks that pass these criteria were used to fit isotope and adduct (Na^+, K^+, and NH4^+) patterns corresponding to individual molecules, and to establish the abundance of each mass feature. The abundance is calculated by MassHunter software as the sum of the isotopic and adduct peaks that correspond to a single molecular feature. After data deconvolution, mass features showing at least two ions (e.g. (M^+H)^+ and (M^+H)^++1 or (M^+H)^+ and (M^+Na)^+) and an abundance value greater than 50000 for positive-ion mode data and 10000 in negative-ion mode data were included in the data set used for binning of the mass features.\nThe media represents a major factor in the experimental system, in that it contributes many peaks to mass spectra. This can be accounted for in a data dependent manner to select for mass feature bins, which are present at significant levels above the media. Mass feature bins present solely in the presence of cells (not detected in media) or with average abundance levels different than uncultured media were considered to be secreted, excreted, consumed, or identified metabolites.\nThe exact mass of the metabolite must be within 10 ppm of the known mass of the compound. 2) The retention time of the metabolite detected in the cell media must be within + or −30 seconds of a reference standard on which MS data had been acquired under the same conditions. The reference standards were dissolved in mTeSR media and prepared in exactly the same manner (described above) as the samples from the cells, including the addition of acetonitrile, Centricon centrifugal filtration, drying then dissolution in formic acid prior to LC-MS analysis. 3) The MS-MS fragmentation spectra of the metabolite detected in the cell media must be a reasonable match with that of the reference standard, including abundances and m/z values of the fragment ions. If published MS-MS spectra are available, the MS-MS spectra must also be a reasonable match."}, "hESCs": {"tested_on": "hESCs", "experiment": "Arginine / ADMA fold change ratio (integrated EICs) in dosed hESCs vs controls", "details": "for Arg fold change/ADMA fold change: EIC areas, controls vs. dosed", "protocol": "All tested chemicals were purchased from Sigma-Aldrich (St. Louis, Mo.). Cells were dosed with drugs at a concentration equivalent to their published serum circulating therapeutic dosages. Dosing was performed on hESCs in 6-well plates in triplicate, i.e. three wells per plate. The plates were dosed in triplicate, so there were a total of nine dosed wells. In parallel, there were nine “control” wells, in which hESCs were cultured with mTeSR1 containing no drug, and three wells containing Matrigel with mTeSR1 medium without hESCs that served as medium controls. Lastly, three wells of dosed medium controls were prepared, containing Matrigel, mTeSR1 and drug, but no hESCs (FIG. 1). These medium controls provided baseline mass spectral data. On the first day of dosage, the determined concentration of drug was dissolved in mTeSR1, and then 2.5 mL of this solution was added to each dosed well of hESCs. Each day, for four days, the medium was removed and new dosed medium was added. On the fourth day, the medium was removed and added to acetonitrile to make a 40% acetonitrile solution, as outlined in the Sample Preparation section below.\nMass spectrometry was performed using an Agilent QTOF LC/MS system consisting of a G6520AA QTOF high resolution mass spectrometer capable of exact mass MS and MS/MS. In order to facilitate separation of small molecules with a wide range of polarity and to allow increased retention of hydrophilic species, Hydrophilic Interaction Liquid Chromatography (Alpert 1990) was employed. Each sample was run for 30 minutes with the gradient shown in Table 3 at a flow rate of 0.5 mL/min, using 0.1% formic acid in water (Solvent A) and 0.1% formic acid in acetonitrile (Solvent B). Electrospray ionization was employed using a dual ESI source, with an Agilent isocratic pump continuously delivering an internal mass reference solution into the source at approx. 0.01 mL/min. The mass range of the instrument was set to 100-1700 Da. A Phenomenex Luna HILIC column with dimensions 3×100 mm 3 μm particle size was used and maintained at 30° C. 5 μl of each sample was injected. Data acquisition was performed with Agilent MassHunter using high-resolution exact mass conditions.\nValproate is known to cause neural tube defects (DiLiberti et al. 1984) while nitric oxide synthase activity is essential for neural tube closure (Nachmany et al. 2006)."}, "WA09 hESCs [3]": {"tested_on": "WA09 hESCs", "experiment": "Random forest prediction of teratogenicity from metabolomics of spent media of dosed hESCs", "format": "cell-based, human", "details": "for Predicted teratogenicity (random forest statistical model): blind study, model trained on TS1, 142 mass features, circulating dose", "protocol": "WA09 hESCs, obtained from WiCell Research Institute (NIH National Stem Cell Bank, Madison, Wis.) were cultured in 6-well plates on Matrigel (BD Biosciences, San Jose, Calif.), in mTeSR1 medium (Stem Cell Technologies, Vancouver, BC) incubated at 37° C. under 5% CO2 in a Thermo Electron Form a Series II Water Jacket CO2 Incubator. hESCs were passaged every three or four days at a 1:3 or 1:6 seeding density for routine culture conditions. For dosing experiments, hESCs were passaged at a low density of 1:10 or 1:12 so that they would not require passaging during the […] dosing protocol. To passage hES cells, the StemPro® EZPassage™ disposable stem cell passaging tool (Invitrogen, Carlsbad, Calif.) was used to detach the cells from the wells. Detached cells were removed with a pipette and distributed to new Matrigel plates.\nas §1, §2, §3, §4\nFollowing feature selection by MassHunter, the data was further preprocessed by MassProfiler (Agilent) software which aligns mass features across multiple LC-MS data files. Mass features were generated for data from each drug treatment experiment (dosed and control) using the default alignment settings in MassProfiler with the requirement that a feature be present in at least 80% of the samples in one treatment. The mass feature datasets for each drug treatment experiment were further processed in a global manner using custom analysis scripts executed in the R statistical software environment. […]"}, "[4]": {"tested_on": "WA09 human embryonic stem (hES) cells", "excerpt": "as §5"}, "[5]": {"details": "blinded drugs; cited from earlier work"}, "mES cells": {"tested_on": "mES cells", "details": "Nieden et al. 2001; cited from earlier work"}, "[6]": {"details": "high dose (H = 10x circulating dose)"}, "[7]": {"details": "low dose (L = 0.1x circulating dose)"}},
  "note": "Where two headings read alike, the source gives them in different places.",
  "data": [
    {"smiles": "O=P1(N(CCCl)CCCl)NCCCO1", "note": "(centres unmarked) [Cyclophosphamide]", "values": [
      {"measurement": "% Non (PLS-DA class probability non-teratogen)", "setting": "[1]; [6]", "value": 0.45},
      {"measurement": "% Ter (PLS-DA class probability teratogen)", "setting": "[1]; [6]", "value": 0.55},
      {"measurement": "Confidence (difference between class probabilities)", "setting": "[1]; [6]", "value": 0.1},
      {"measurement": "Prediction", "setting": "[1]; [6]", "value": "Ter"},
      {"measurement": "% Non (PLS-DA class probability non-teratogen)", "setting": "[1]; [7]", "value": 0.41},
      {"measurement": "% Ter (PLS-DA class probability teratogen)", "setting": "[1]; [7]", "value": 0.59},
      {"measurement": "Confidence (difference between class probabilities)", "setting": "[1]; [7]", "value": 0.18},
      {"measurement": "Prediction", "setting": "[1]; [7]", "value": "Ter"},
      {"measurement": "Abundance of succinic acid", "setting": "WA09 hESCs [2]", "value": "significant down regulation"},
      {"measurement": "Arg fold change/ADMA fold change", "setting": "hESCs", "value": 1.56},
      {"measurement": "Arg/ADMA Prediction", "setting": "hESCs; from fold change ratio", "value": "Ter"},
      {"measurement": "Predicted teratogenicity (random forest statistical model)", "setting": "WA09 hESCs [3]", "value": "Ter"}
    ]},
    {"smiles": "Nc1ccn([C@@H]2O[C@H](CO)[C@@H](O)[C@@H]2O)c(=O)n1", "note": "[CytosineArabinoside]", "values": [
      {"measurement": "Prediction", "setting": "[4]", "value": "Ter"}
    ]},
    {"smiles": "CC1=C(/C=C/C(C)=C/C=C/C(C)=C/CO)C(C)(C)CCC1", "note": "[Retinol]", "values": [
      {"measurement": "% Non (PLS-DA class probability non-teratogen)", "setting": "[1]; [6]", "value": 0.65},
      {"measurement": "% Ter (PLS-DA class probability teratogen)", "setting": "[1]; [6]", "value": 0.35},
      {"measurement": "Confidence (difference between class probabilities)", "setting": "[1]; [6]", "value": 0.3},
      {"measurement": "Prediction", "setting": "[1]; [6]", "value": "Non"},
      {"measurement": "% Non (PLS-DA class probability non-teratogen)", "setting": "[1]; [7]", "value": 0.75},
      {"measurement": "% Ter (PLS-DA class probability teratogen)", "setting": "[1]; [7]", "value": 0.25},
      {"measurement": "Confidence (difference between class probabilities)", "setting": "[1]; [7]", "value": 0.5},
      {"measurement": "Prediction", "setting": "[1]; [7]", "value": "Non"},
      {"measurement": "Actual teratogenicity", "setting": "[5]", "value": "Non"},
      {"measurement": "Arg fold change/ADMA fold change", "setting": "hESCs", "value": 1.03},
      {"measurement": "Predicted teratogenicity (random forest statistical model)", "setting": "WA09 hESCs [3]", "value": "Non"}
    ]},
    {"smiles": "O=C1CCC(N2C(=O)c3ccccc3C2=O)C(=O)N1", "note": "(centres unmarked) [Thalidomide]", "values": [
      {"measurement": "% Non (PLS-DA class probability non-teratogen)", "setting": "[1]; [6]", "value": 0.3},
      {"measurement": "% Ter (PLS-DA class probability teratogen)", "setting": "[1]; [6]", "value": 0.7},
      {"measurement": "Confidence (difference between class probabilities)", "setting": "[1]; [6]", "value": 0.4},
      {"measurement": "Prediction", "setting": "[1]; [6]", "value": "Ter"},
      {"measurement": "% Non (PLS-DA class probability non-teratogen)", "setting": "[1]; [7]", "value": 0.65},
      {"measurement": "% Ter (PLS-DA class probability teratogen)", "setting": "[1]; [7]", "value": 0.35},
      {"measurement": "Confidence (difference between class probabilities)", "setting": "[1]; [7]", "value": 0.3},
      {"measurement": "Prediction", "setting": "[1]; [7]", "value": "Non"},
      {"measurement": "Correct classification as a teratogen by the EST", "setting": "mES cells", "value": "does not"},
      {"measurement": "Arg/ADMA Prediction", "setting": "hESCs", "value": "Ter"},
      {"measurement": "Arg fold change/ADMA fold change", "setting": "hESCs", "value": 0.85},
      {"measurement": "Classification by the hSLC based assay", "setting": "WA09 hESCs [3]", "value": "teratogen"}
    ]},
    {"smiles": "Cc1ncc(C[n+]2csc(CCO)c2C)c(N)n1", "note": "[Thiamine]", "values": [
      {"measurement": "% Non (PLS-DA class probability non-teratogen)", "setting": "[1]; [6]", "value": 0.78},
      {"measurement": "% Ter (PLS-DA class probability teratogen)", "setting": "[1]; [6]", "value": 0.22},
      {"measurement": "Confidence (difference between class probabilities)", "setting": "[1]; [6]", "value": 0.56},
      {"measurement": "Prediction", "setting": "[1]; [6]", "value": "Non"},
      {"measurement": "% Non (PLS-DA class probability non-teratogen)", "setting": "[1]; [7]", "value": 0.82},
      {"measurement": "% Ter (PLS-DA class probability teratogen)", "setting": "[1]; [7]", "value": 0.18},
      {"measurement": "Confidence (difference between class probabilities)", "setting": "[1]; [7]", "value": 0.64},
      {"measurement": "Prediction", "setting": "[1]; [7]", "value": "Non"},
      {"measurement": "Actual teratogenicity", "setting": "[5]", "value": "Non"},
      {"measurement": "Arg fold change/ADMA fold change", "setting": "hESCs", "value": 1.00},
      {"measurement": "Predicted teratogenicity (random forest statistical model)", "setting": "WA09 hESCs [3]", "value": "Non"}
    ]}
  ]
}
